According to ChEMBL document CHEMBL4513101, “Naegleria gruberi Pathogen Box compounds screening” (2021):
The source made the active and inactive calls. Cut-off read from the data, not from the text of the source: active = inhibition of 80% or more and inactive = less.

Test system: Naegleria gruberi
Assay: microbe, parasite or virus in culture
Type: functional
Conditions: NEG-M, CONC 10 uM
Description: Growth inhibiting activity of Naegleria gruberi in vitro

Structure (SMILES) | inhibition at 10 µM
CC(C(=O)Nc1ccc2oc(-c3ccncc3)nc2c1)c1ccccc1 (centres undefined) | 48.6% (not active)
CO[C@@H](C(=O)N1Cc2[nH]nc(NC(=O)c3ccc(N4CCN(C)CC4)cc3)c2C1)c1ccccc1 [DANUSERTIB] | 41.3% (not active)
Nc1ncnc2c1c(Cc1cccc3ccccc13)nn2CC1CCNCC1 | 11.4% (not active)
COc1ccc(-c2cncc3ccc(C(=O)NCCCn4ccnc4)nc23)cc1 | 5.8% (not active)
COc1ccc2nccc(NC(=O)C3CCN(CCc4ccc(Cl)cc4)CC3)c2n1 | 18.8% (not active)
CCc1ccccc1-n1c(C)cn2c3c(=O)n(C(C(=O)OC)C(C)C)c(=O)n(C)c3nc12 (centres undefined) | 4.4% (not active)
COc1ccccc1CNC(=O)c1cc(C2CC2)nc2c1cnn2C(C)C | 49.8% (not active)
Cc1cc(Nc2ccc(C(F)(F)F)cc2)n2ccnc2n1 | 0% (not active)
COCC(C)NC(=O)CSc1ncnc2sc(-c3ccccc3)cc12 (centres undefined) | 45.7% (not active)
O=C(Nc1cccnc1)c1c(O)c2cccc3c2n(c1=O)CC3 | 40.3% (not active)
CCOC(=O)c1cc(-c2csc(Nc3c(C)cc(C)cc3C)n2)on1 | 33.4% (not active)
C[C@H]1COc2c(N3CCN(C)CC3)c(F)cc3c(=O)c(C(=O)O)cn1c23 [LEVOFLOXACIN] | 0% (not active)
CC(=O)NCC1CN(c2ccc(-c3ccc(CO)cc3)c(F)c2)C(=O)O1 (centres undefined) | 35.1% (not active)
COc1ccc(C2CC(c3cccs3)=NN2C(=O)c2ccco2)cc1OC (centres undefined) | 34.6% (not active)
O=C(NCc1nnc2n1CCCCC2)c1ccc(-c2ccc(F)cc2)o1 | 29.3% (not active)
COc1cc(Br)cc2cc(C(=O)Nc3cccc(C(F)(F)F)c3)c(=O)oc12 | 21% (not active)
CC(C)(C)c1cc(C(=O)N2CCN(c3nccnc3C#N)CC2)n(Cc2ccccc2)n1 | 31.6% (not active)
Nc1ncnc2c1ncn2[C@@H]1O[C@H](COS(=O)(=O)NC(=O)c2ccccc2O)[C@@H](O)[C@H]1O | 14.5% (not active)
CC(C)(C)c1cnc(NC(=O)c2ccccc2O)s1 | 0% (not active)
NC(CC(=O)c1ccc(Cl)cc1Cl)C(Cl)(Cl)Cl (centres undefined) | 11.7% (not active)
CC(C)C(NC(=O)Cc1cccc2ccccc12)C(=O)Nc1cccc(C#N)c1 (centres undefined) | 37.5% (not active)
COc1cc(C2=NCCN2)ccc1-n1cc(-c2cccc(C3=NCCN3)c2)nn1 | 16.2% (not active)
CC1(C)Cc2c(c(N3CCOCC3)nc3snc(Br)c23)CO1 | 0% (not active)

Structure (SMILES) | inhibition at 10 µM
CCCNC(=O)N1CCC2(CC1)CC(=O)c1cc(C)ccc1O2 | 11.6% (not active)
CCOc1ccc(OCC(=O)Nc2cc(C)cc(C)c2)cc1 | 0% (not active)
Cc1cc(C)nc(-n2nc(C)cc2Nc2ccccc2)n1 | 31.5% (not active)
COc1cc(NC(C)CCCN)c2ncccc2c1 (centres undefined) [PRIMAQUINE] | 10.7% (not active)
O=C(NC1CC1)c1ccc(CSCc2ccccc2Cl)o1 | 5.6% (not active)
CCOc1ccc2cc(-c3nn(C(C)(C)C)c(N)c3C(N)=O)cnc2c1 | 92.5% (active)
CC(Oc1ccccc1)C(=O)Nc1nc(-c2ccccn2)cs1 (centres undefined) | 32.3% (not active)
O=C(NCCc1c[nH]c2ccccc12)c1cc2ccccc2oc1=O | 33.7% (not active)
CC(=O)Oc1ccccc1C(=O)Nc1ncc([N+](=O)[O-])s1 [NITAZOXANIDE] | 62.7% (not active)
Cc1cccc(C(=O)Nc2ccnc(N(C)C3CCN(CC(C)C)CC3)c2)c1 | 35.1% (not active)
Cc1cc(C(=O)Nc2cnn(Cc3ccc(Cl)cc3Cl)c2)no1 | 65% (not active)
CC(=O)Nc1ccc(NC(=O)c2cc(-c3cc(Cl)ccc3O)n[nH]2)cc1 | 8.8% (not active)
O=C(NCCN1CCCC1)c1cc(NCCN2CCOCC2)nc2ccc(Cl)cc12 | 11% (not active)
CS(=O)(=O)N1CCC(Cn2nc(Cc3cccc4ccccc34)c3c(N)ncnc32)CC1 | 30.6% (not active)
COC(=O)c1ccc(F)cc1NS(=O)(=O)c1cccc(-c2cnn(Cc3ccccc3)c2)c1 | 26.2% (not active)
Nc1ncnc2c1ncn2C[C@@H](O)[C@@H](O)C(=O)O [ERITADENINE] | 36.3% (not active)
O=C(Nc1ccccc1)c1ccc(-c2cc3ccncc3cc2OC2CCNCC2)s1 | 12.6% (not active)
COc1cccc2c(C)nc(N=C(N)N)nc12 | 24.2% (not active)
Cc1cc(Nc2ccncc2)n2nc(C)c(-c3ccccc3Cl)c2n1 | 27.7% (not active)
CCc1nc2ccccc2n1CC(O)COc1cc(C)ccc1Cl (centres undefined) | 25.3% (not active)
Clc1ccc(CN2CCN(C3=NCCN3)CC2)cc1Cl | 23.3% (not active)
Cc1ccccc1CN1CCC(O)(c2ccc(Cl)c(C(F)(F)F)c2)CC1 | 47.4% (not active)
CC(=O)NCC1CN(c2ccc(-c3ccc(CNCc4cn[nH]n4)cc3)c(F)c2)C(=O)O1 (centres undefined) | 26.2% (not active)

Structure (SMILES) | inhibition at 10 µM
Cc1ccc(NC(=O)c2cc(S(=O)(=O)NC(C)(C)C)ccc2C)nc1 | 34.7% (not active)
c1coc(CNc2nc(N3CCCCC3)nc3ccccc23)c1 | 56.5% (not active)
Nc1ncnc2c1c(-c1cnc3ccccc3c1)nn2CC1CCNCC1 | 4.9% (not active)
CCCn1c(CNc2ccccc2O)nc2ccccc21 | 39.9% (not active)
COc1cncc(-c2cncc(N3CCN(c4ccncc4)CC3)n2)c1 | 26.8% (not active)
Cc1nn(C)cc1C(C)Nc1nncc(-c2ccc(C(F)(F)F)cc2)n1 (centres undefined) | 0% (not active)
COc1ccc(Oc2ccc([C@@H](C)N(C)c3ncc4c(N)nc(N)nc4n3)cc2)cc1 | 25.6% (not active)
CCN(CC)CCCCCCNc1cc(OC)cc2c(C)ccnc12 [SITAMAQUINE] | 40.1% (not active)
O=C(NC1CCCCC1)N1CCN(Cc2ccc3c(c2)OCO3)CC1 | 31.3% (not active)
Clc1cccc(CO[C@H]2CCc3ccccc3[C@@H]2n2ccnn2)c1 | 12.6% (not active)
COc1ccc(-c2cnc3ccc(N4CCCC4)nn23)cc1OC | 51.2% (not active)
Cc1nc(-c2ccccn2)nc(NCCc2ccc(S(C)(=O)=O)cc2)c1Cl | 26.6% (not active)
COc1ccc(C2=NCCN2)cc1-c1cn(-c2cccc(C3=NCCN3)c2)nn1 | 21.7% (not active)
CC(C)(CN)c1nc(-c2ccc(Cl)c(O)c2)c(-c2ccnc(N)n2)[nH]1 | 6.4% (not active)
O=C(NCCc1ccccc1)c1cc(-c2cccnc2)cnc1NCC1CC1 | 37.7% (not active)
O=C(NC1CC1)c1ccc(N2CCOc3ccc(Cl)cc32)s1 | 27.6% (not active)
OCc1ccc(-c2cncc(Nc3cccc(Cl)c3)c2)cc1 | 18.8% (not active)
OC[C@H]1O[C@@H](n2c3ccc(Cl)cc3c3c(-c4cc5ccccc5o4)ncnc32)C(O)[C@H]1O (some centres undefined) | 17.3% (not active)
Cc1ccc2[nH]c(C3CCCNC3)c(-c3ccncc3)c2c1 (centres undefined) | 9.5% (not active)
O=C(Nc1nc(-c2ccccn2)cs1)c1cncn1-c1ccccc1 | 45.9% (not active)
CNC(=O)c1cc(S(=O)(=O)N2CCN(c3ccccn3)CC2)cs1 | 32.9% (not active)
CC(C)(C)OC(=O)N1CCN(c2cc(-c3ccc(Oc4ccccc4)cc3)n[nH]2)CC1 | 65.7% (not active)
CNC(=O)c1nn(C)c2c1C(C)(C)Cc1cnc(Nc3ccc(N4CCN(C)CC4)cc3)nc1-2 [MILCICLIB] | 18.3% (not active)

Structure (SMILES) | inhibition at 10 µM
C[C@H](c1ccc2c(c1)CCCC2)N(C)c1ncc2c(N)nc(N)nc2n1 | 29.6% (not active)
Brc1cncc(-c2cc(NCCCn3ccnc3)nc(-c3ccccc3)n2)c1 | 33.8% (not active)
O=C(c1ccco1)N(CCCn1ccnc1)c1nc2c(Cl)cccc2s1 | 68.6% (not active)
CCc1ccc([C@@H]2C[C@H](C(F)(F)F)n3ncc(C(=O)NCc4ccc(OC)cc4)c3N2)cc1 | 29% (not active)
Cc1ccc2oc(-c3cc(NC(=O)Cc4ccccc4)ccc3Cl)nc2c1 | 44.5% (not active)
CCNC(=O)C(C)Nc1nc(-c2cccnc2)nc2sc(C)c(C)c12 (centres undefined) | 12.2% (not active)
O=C([C@@H](c1ccc(Cl)cc1)c1cccnc1)N1CCN(c2ccc(C(F)(F)F)cc2)CC1 | 75.6% (not active)
Nc1ccc2ncnc(Nc3ccc(OCc4cccc(F)c4)c(Cl)c3)c2c1 | 10.6% (not active)
CS(=O)(=O)c1cccc(-c2cnc3[nH]cc(-c4ccc(CCC(=O)O)cc4)c3c2)c1 | 28.7% (not active)
O=C(CN1CCOCC1)Nc1ccc2ncnc(Nc3ccc(OCc4cccc(F)c4)c(Cl)c3)c2c1 | 17% (not active)
COC(=O)c1c(NC(=O)c2cc3ccccc3oc2=O)sc2c1CCN(Cc1ccccc1)C2 | 17.2% (not active)
CC(C)(C)[C@H]1CC[C@H](CC2=C(O)C(=O)c3ccccc3C2=O)CC1 [BUPARVAQUONE] | 92.9% (active)
CC(C)NCC(=O)Nc1cccc(C(=O)Nc2cccc(C(F)(F)F)c2)c1 | 4.8% (not active)
O=C(c1[nH]nc2c1CCCC2)N1CCN(Cc2ccc3c(c2)OCO3)CC1 | 29.5% (not active)
COc1ccc(N(CCc2cccc(C)n2)C(=O)C2CCCCC2)cc1 | 20% (not active)
NC(=O)c1cc(-c2ccsc2)ccc1OCCOc1ccccc1 | 43.7% (not active)
CCCCOC(=O)Nc1cc2nc(C3CCCCC3)[nH]c2cc1N1CCCC1 | 64.3% (not active)
COc1cc(OC)cc(C(=O)NCC2Cc3cc(Cl)cc(-c4ccncc4)c3O2)c1 (centres undefined) | 20.9% (not active)
CCCCc1ccc(NC(=O)Nc2ccc(O[C@H]3CCCC[C@@H]3N(C)c3ccccc3)c(F)c2)cc1 | 41.1% (not active)
COc1ccc(S(=O)(=O)Nc2ccc(CN3CCN(C(=O)c4cccc(C#N)c4)CC3)cc2)cc1 | 18.8% (not active)
